Source: EP1969935A1, “3.4-disubstituted phenoxy phenylamidines and their use as fungicides” (Bayer CropScience AG, priority 2007, dated 2008)

Legend:
logP determination = format: physicochemical; settings: pH 2.3; given in the preparation examples; read-out: log P (pH2.3)
Alternaria solani = assay: Alternaria test (tomato) / protective; format: in vivo; settings: 500ppm active ingredient, tomato plants sprayed protectively, inoculated 1 day after treatment, evaluated 7 days after inoculation; 0% = control, 100% = no infestation
From the text: Beispiel 5: Alternaria-Test (Tomate) / protektiv
(§1) Zur Herstellung einer zweckmäßigen Wirkstoffzubereitung vermischt man 1 Gewichtsteil Wirkstoff mit den angegebenen Mengen Lösungsmittel und Emulgator und verdünnt das Konzentrat mit Wasser auf die gewünschte Konzentration.
Zur Prüfung auf protektive Wirksamkeit bespritzt man junge Tomatenpflanzen mit der Wirkstoffzubereitung in der angegebenen Aufwandmenge. 1 Tag nach der Behandlung werden die Pflanzen mit einer Sporensuspension von Alternaria solani inokuliert und stehen dann 24h bei 100% rel. Feuchte und 20°C. Anschließend stehen die Pflanzen bei 96% rel. Luftfeuchtigkeit und einer Temperatur von 20 °C.
7 Tage nach der Inokulation erfolgt die Auswertung. Dabei bedeutet 0 % ein Wirkungsgrad, der demjenigen der Kontrolle entspricht, während ein Wirkungsgrad von 100 % bedeutet, dass kein Befall beobachtet wird.

Sphaerotheca fuliginea = assay: Sphaerotheca test (cucumber) / protective; format: in vivo; settings: 100ppm active ingredient, cucumber plants sprayed protectively, evaluated 7 days after inoculation; 0% = control, 100% = no infestation
From the text: Beispiel 2: Sphaerotheca-Test (Gurke) / protektiv
as §1
(§2) Zur Prüfung auf protektive Wirksamkeit werden junge Pflanzen mit der Wirkstoffzubereitung in der angegebenen Aufwandmenge besprüht. Nach Antrocknen des Spritzbelages werden die Pflanzen mit einer wäßrigen Sporensuspension von Sphaerotheca fuliginea inokuliert. Die Pflanzen werden dann bei ca. 23°C und einer relativen Luftfeuchtigkeit von ca. 70% im Gewächshaus aufgestellt.
7 Tage nach der Inokulation erfolgt die Auswertung. Dabei bedeutet 0% ein Wirkungsgrad, der demjenigen der Kontrolle entspricht, während ein Wirkungsgrad von 100% bedeutet, daß kein Befall beobachtet wird.

Uromyces appendiculatus = assay: Uromyces test (bean) / protective; format: in vivo; settings: 10ppm active ingredient, bean plants sprayed protectively, evaluated 10 days after inoculation; 0% = control, 100% = no infestation
From the text: In diesem Test zeigen die erfindungsgemäßen Verbindungen 10, 11, 12 und 13 (siehe Tab.IV) bei einer Konzentration an Wirkstoff von 100ppm einen Wirkungsgrad von 70% oder mehr. Beispiel 3: Uromyces - Test (Bohne) / protektiv
as §1
Zur Prüfung auf protektive Wirksamkeit werden junge Pflanzen mit der Wirkstoffzubereitung in der angegebenen Aufwandmenge besprüht. Nach Antrocknen des Spritzbelages werden die Pflanzen mit einer wäßrigen Sporensuspension des Bohnenrosterregers Uromyces appendiculatus inokuliert und verbleiben dann 1 Tag bei ca. 20°C und 100% relativer Luftfeuchtigkeit in einer Inkubations-kabine.
Die Pflanzen werden dann im Gewächshaus bei ca. 21°C und einer relativen Luftfeuchtigkeit von ca. 90% aufgestellt.
(§3) 10 Tage nach der Inokulation erfolgt die Auswertung. Dabei bedeutet 0% ein Wirkungsgrad, der demjenigen der Kontrolle entspricht, während ein Wirkungsgrad von 100% bedeutet, daß kein Befall beobachtet wird.

Podosphaera leucotricha = assay: Podosphaera test (apple) / protective; format: in vivo; settings: 100ppm active ingredient, apple plants sprayed protectively, evaluated 10 days after inoculation; 0% = control, 100% = no infestation
From the text: Beispiel 1: Podosphaera-Test (Apfel) / protektiv
as §1
as §2, with “des Apfelmehltauerregers Podosphaera leucotricha” for “von Sphaerotheca fuliginea”, “dann im Gewächshaus” for “dann”, “70%” for “70% im Gewächshaus”
as §3

[1] = system: Erysiphe graminis f.sp. hordei; assay: Erysiphe test (barley) / protective; format: in vivo; settings: 1000 ppm active ingredient, barley plants sprayed protectively, evaluated 7 days after inoculation; 0% = control, 100% = no infestation
From the text: Beispiel 4: Erysiphe-Test (Gerste) / protektiv
as §1
Zur Prüfung auf protektive Wirksamkeit besprüht man junge Pflanzen mit der Wirkstoffzubereitung in der angegebenen Aufwandmenge.
Nach Antrocknen des Spritzbelages werden die Pflanzen mit Sporen von Erysiphe graminis f.sp. hordei bestäubt.
Die Pflanzen werden in einem Gewächshaus bei einer Temperatur von ca. 20°C und einer relativen Luftfeuchtigkeit von ca. 80 % aufgestellt, um die Entwicklung von Mehltaupusteln zu begünstigen.
7 Tage nach der Inokulation erfolgt die Auswertung. Dabei bedeutet 0 % ein Wirkungsgrad, der demjenigen der Kontrolle entspricht, während ein Wirkungsgrad von 100 % bedeutet, daß kein Befall beobachtet wird.

logD (logP determination) | SMILES | Wirkungsgrad (Alternaria solani) | Wirkungsgrad (Sphaerotheca fuliginea) | Wirkungsgrad (Uromyces appendiculatus) | Wirkungsgrad (Podosphaera leucotricha) | Wirkungsgrad [1]
3.08 | Cc1cc(Oc2ccc3c(c2)CCCC3)c(C)cc1N [4-(5,6,7,8-Tetrahydro-2-napthoxy)-2,5-dimethylanilin] | – | – | – | – | –
5.86 | Cc1cc([N+](=O)[O-])c(C)cc1Oc1ccc2c(c1)CCCC2 [4-(5,6,7,8-Tetrahydro-2-napthoxy)-2,5-dimethylnitrobenzol] | – | – | – | – | –
– | CCN(C)C=Nc1cc(C)c(Oc2ccc3c(c2)CCCC3)cc1C [Verbindung 13, N-E-thyl-N-methyl-N'-[4-(5,6,7,8-tetrahydro-2-napthoxy)-2,5-dimethylphenyl]form-amidin] | ≥ 70% | ≥ 70% | ≥ 70% | ≥ 70% | ≥ 70%
